Data: patent US20200031778A1, “NOVEL 5-SUBSTITUTED IMIDAZOLYLMETHYL DERIVATIVES” (Bayer CropScience Aktiengesellschaft, priority 2016, published 2020)

Assay: Log P by HPLC on reversed phase columns (EEC directive 79/831 Annex V.A8; methods [a], [b], [c])
Format: physicochemical
Summary of the method: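 Reversed-phase HPLC with LC-UV detection, 10→95% acetonitrile linear gradient; aqueous eluent 0.1% formic acid [a], 0.001 M ammonium acetate, neutral [b], or 0.1% phosphoric acid [c]. Calibrated against C3–C16 alkan-2-ones of known Log P by retention-time linear interpolation; multiple values within a method separated by "+".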

| SMILES | LogP |
| --- | --- |
| CC(O)(Cn1cncc1C#N)c1ccc(Oc2ccc(Cl)cc2)cc1C(F)(F)F (stereo not shown) [I-209] | 3.51^[a] |
| CC(O)(Cn1cncc1F)c1ccc(Oc2ccc(Cl)cc2)cc1C(F)(F)F (stereo not shown) [I-211] | 2.64^[a] |
| Cc1ccc(C(O)(Cn2cncc2C#N)C2(Cl)CC2)cc1C1(C(F)(F)F)CC1 (stereo not shown) [I-212] | 3.27^[a] |
| CC(O)(Cn1cncc1F)c1ccc(Oc2ccc(Br)cc2)nc1C(F)(F)F (stereo not shown) [I-213] | 2.35^[a] |
| CC(O)(Cn1cncc1F)c1ccc(Oc2ccc(Cl)cc2)nc1F (stereo not shown) [I-214] | 1.98^[a] |
| CC(C)(C)C(O)(Cn1cncc1Cl)c1cc2cc(OC(F)(F)F)ccc2o1 (stereo not shown) [I-215] | 2.75^[a] |
| CC(O)(Cn1cncc1C#N)c1ccc(Oc2ccc(Cl)cc2)cc1Br (stereo not shown) [I-216] | 3.50^[a] |
| CC(O)(Cn1cncc1C#N)c1ccc(Oc2ccc(I)cc2)cc1Br (stereo not shown) [I-217] | 3.81^[a] |
| CC(O)(Cn1cncc1C#N)c1cnc(Oc2ccc(C(F)(F)F)cc2)cc1C(F)(F)F (stereo not shown) [I-218] | 3.23^[a] |
| CC(O)(Cn1cncc1C#N)c1ccc(Oc2ccc(Br)cc2)cc1Br (stereo not shown) [I-219] | 3.73^[a] |
| CCC(O)(Cn1cncc1C#N)c1ccc(Cl)cc1 (stereo not shown) [I-222] | 2.32^[a] |
| CC(C)(C)CC(O)(Cn1cncc1C#N)c1ccc(Cl)cc1 (stereo not shown) [I-223] | 3.11^[a] |
| C[Si](C)(C)CC(O)(Cn1cncc1C#N)c1ccc(Cl)cc1 (stereo not shown) [I-224] | 3.35^[a] |
| CC(C)(C)CC(O)(Cn1cncc1C#N)c1ccc(F)cc1 (stereo not shown) [I-226] | 2.90^[a] |
| C[Si](C)(C)CC(O)(Cn1cncc1C#N)c1ccc(F)cc1 (stereo not shown) [I-227] | 3.05^[a] |
| CCCCC(O)(Cn1cncc1C#N)c1ccc(F)cc1 (stereo not shown) [I-228] | 2.47^[a] |
| CC(O)(Cn1cncc1F)c1cnc(Oc2ccc(Cl)cc2F)cc1C(F)(F)F (stereo not shown) [I-229] | 2.43^[a] |
| CC(O)(Cn1cncc1F)c1cnc(Oc2ccc(C(F)F)cc2)cc1C(F)(F)F (stereo not shown) [I-230] | 2.17^[a] |
| N#Cc1cncn1CC(O)(c1ccc(Cl)cc1)C1(F)CC1 (stereo not shown) [I-231] | 2.27^[a] |
| N#Cc1cncn1CC(O)(c1ccc(Cl)cc1)C1(Cl)CC1 (stereo not shown) [I-232] | 2.49^[a] |
| CC(O)(Cn1cncc1C#N)c1cnc(Oc2ccc(Cl)cc2F)cc1C(F)(F)F (stereo not shown) [I-233] | 3.29^[a] |
| CC(O)(Cn1cncc1C#N)c1cnc(Oc2ccc(C(F)F)cc2)cc1C(F)(F)F (stereo not shown) [I-234] | 2.94^[a] |
| N#Cc1cncn1CC(O)(c1ccc(Cl)cc1Cl)C1(Cl)CC1 (stereo not shown) [I-235] | 2.67^[a] |
| N#Cc1cncn1CC(O)(c1ccc(F)cc1Cl)C1(Cl)CC1 (stereo not shown) [I-236] | 2.35^[a] |

| SMILES | LogP |
| --- | --- |
| N#Cc1cncn1CC(O)(c1ccc(Cl)cc1Cl)C1(F)CC1 (stereo not shown) [I-237] | 2.51^[a] |
| CC(C)(C)CC(O)(Cn1cncc1C#N)c1ccc(F)cc1F (stereo not shown) [I-238] | 3.06^[a] |
| CC(C)(C)CC(C)(O)Cn1cncc1C#N (stereo not shown) [I-239] | 1.92^[a] |
| CC(O)(Cn1cncc1F)c1cnc(Oc2ccc(Cl)cc2)cc1C(F)(F)F (stereo not shown) [I-240] | 2.30^[a] |
| CC(O)(Cn1cncc1F)c1cnc(Oc2ccc(OC(F)(F)F)cc2)cc1C(F)(F)F (stereo not shown) [I-241] | 2.51^[a] |
| CC(C)(C)CC(O)(Cn1cncc1C#N)c1ccccc1 (stereo not shown) [I-242] | 2.77^[a] |
| CC(O)(Cn1cncc1F)c1cnc(Oc2ccc(C(F)(F)F)cc2)cc1Br (stereo not shown) [I-243] | 2.36^[a] |
| CC(O)(Cn1cncc1F)c1cnc(Oc2ccc(C(F)(F)F)cc2)cc1Cl (stereo not shown) [I-244] | 2.13^[a] |
| CC(=O)c1cncn1CC(C)(O)c1cnc(Oc2ccc(C(F)(F)F)cc2)cc1Cl (stereo not shown) [I-246] | 2.76^[a] |
| CC(C)(C)c1ccc(C(O)(Cn2cncc2C#N)C2(Cl)CC2)cc1 (stereo not shown) [I-247] | 3.29^[a] |
| N#Cc1cncn1CC(O)(c1ccc(F)cc1)C1(Cl)CC1 (stereo not shown) [I-248] | 2.21^[a] |
| CC(O)(Cn1cncc1C#N)c1cnc(Oc2ccc(Cl)cc2)cc1C(F)(F)F (stereo not shown) [I-249] | 3.44^[a] |
| CC(=O)c1cncn1CC(C)(O)c1cnc(Oc2ccc(Cl)cc2)cc1C(F)(F)F (stereo not shown) [I-250] | 2.78^[a] |
| CC(O)(Cn1cncc1C#N)c1cnc(Oc2ccc(C(F)(F)F)cc2)cc1C(F)(F)F (stereo not shown) [I-251] | 3.51^[a] |
| CC(=O)c1cncn1CC(C)(O)c1cnc(Oc2ccc(C(F)(F)F)cc2)cc1Br (stereo not shown) [I-252] | 2.84^[a] |
| CC(O)(Cn1cncc1C#N)c1cnc(Oc2ccc(C(F)(F)F)cc2)cc1Br (stereo not shown) [I-253] | 3.27^[a] |
| CC(O)(Cn1cncc1C#N)c1cnc(Oc2ccc(C(F)(F)F)cc2)cc1Cl (stereo not shown) [I-254] | 3.21^[a] |
| N#Cc1cncn1CC(O)(c1ccccc1Br)C1(Cl)CC1 (stereo not shown) [I-255] | 2.37^[a] |
| CC(O)(Cn1cncc1F)c1ccc(Oc2ccc(Cl)cc2)nc1C(F)(F)F (stereo not shown) [I-257] | 2.32^[a] |
| CC(O)(Cn1cncc1C#N)c1cnc(Oc2ccc(Br)cc2)cc1C(F)F (stereo not shown) [I-258] | 2.68^[a] |
| CC(C)(C)CC(O)(Cn1cncc1C#N)c1ccc(F)cc1Cl (stereo not shown) [I-259] | 3.39^[a] |
| CC(C)(C)CC(O)(Cn1cncc1C#N)c1ccc(Cl)cc1F (stereo not shown) [I-260] | 3.44^[a] |
| CCCCC(O)(Cn1cncc1C#N)c1ccc(Cl)cc1Cl (stereo not shown) [I-261] | 3.41^[a] |
| CCCCC(O)(Cn1cncc1C#N)c1ccc(F)cc1F (stereo not shown) [I-262] | 2.73^[a] |

| SMILES | LogP |
| --- | --- |
| CCCCC(O)(Cn1cncc1C#N)c1ccc(Cl)cc1F (stereo not shown) [I-263] | 3.19^[a] |
| N#Cc1cncn1CC(O)(c1ccc(C(F)(F)F)cc1Cl)C1(Cl)CC1 (stereo not shown) [I-264] | 2.80^[a] |
| CCCCC(O)(Cn1cncc1C#N)c1ccc(OC(F)(F)F)cc1 (stereo not shown) [I-265] | 3.25^[a] |
| CCCCC(O)(Cn1cncc1C#N)c1ccc(C(F)(F)F)cc1Cl (stereo not shown) [I-266] | 3.65^[a] |
| CCCCC(O)(Cn1cncc1C#N)c1ccc(C(F)(F)F)cc1F (stereo not shown) [I-267] | 3.35^[a] |
| CC(C)(C)CC(O)(Cn1cncc1C#N)c1ccc(C(F)(F)F)cc1Cl (stereo not shown) [I-268] | 3.85^[a] |
| C[Si](C)(C)CC(O)(Cn1cncc1C#N)c1ccc(C(F)(F)F)cc1 (stereo not shown) [I-269] | 3.55^[a] |
| C[Si](C)(C)CC(O)(Cn1cncc1C#N)c1ccc(OC(F)(F)F)cc1 (stereo not shown) [I-270] | 3.70^[a] |
| C[Si](C)(C)CC(O)(Cn1cncc1C#N)c1ccccc1F (stereo not shown) [I-271] | 3.17^[a] |
| CC(C)(C)CC(O)(Cn1cncc1C#N)c1ccc(C(F)(F)F)cc1 (stereo not shown) [I-272] | 3.35^[a] |
| CC(C)(C)CC(O)(Cn1cncc1C#N)c1ccc(C(F)(F)F)cc1F (stereo not shown) [I-273] | 3.55^[a] |
| CC(C)(C)CC(O)(Cn1cncc1C#N)c1ccccc1F (stereo not shown) [I-274] | 2.92^[a] |
| CC(C)(C)CC(O)(Cn1cncc1C#N)c1ccc(OC(F)(F)F)cc1 (stereo not shown) [I-275] | 3.50^[a] |
| CCCCC(O)(Cn1cncc1C#N)c1ccc(F)cc1Cl (stereo not shown) [I-276] | 2.95^[a] |
| CCCCC(O)(Cn1cncc1C#N)c1ccc(C(F)(F)F)cc1 (stereo not shown) [I-277] | 2.94^[a] |
| Cc1ccccc1C(O)(Cn1cncc1C#N)C1(Cl)CC1 (stereo not shown) [I-278] | 1.29^[a] |
| CC(O)(Cn1cncc1C#N)c1ccc(Oc2ccc(Cl)cc2F)nc1C(F)(F)F (stereo not shown) [I-279] | 3.14^[a] |
| N#Cc1cncn1CC(O)(c1ccc(-c2ccccc2)cc1)C1(Cl)CC1 (stereo not shown) [I-280] | 2.94^[a] |
| N#Cc1cncn1CC(O)(c1ccc(Oc2ccccc2)cc1)C1(Cl)CC1 (stereo not shown) [I-281] | 3.19^[a] |
| CCCCC(O)(Cn1cncc1C#N)c1ccccc1Cl (stereo not shown) [I-282] | 2.80^[a] |
| CCCCC(O)(Cn1cncc1C#N)c1ccccc1Br (stereo not shown) [I-283] | 2.89^[a] |
| CC(C)(C)C(O)(Cn1cncc1C#N)c1ccc(Cl)cc1 (stereo not shown) [I-284] | 2.74^[a] |
| CC(C)CC(O)(Cn1cncc1C#N)c1ccc(Cl)cc1 (stereo not shown) [I-285] | 2.70^[a] |
| CCCCCC(O)(Cn1cncc1C#N)c1ccc(Cl)cc1 (stereo not shown) [I-286] | 3.10^[a] |

| SMILES | LogP |
| --- | --- |
| CCCCC(O)(Cn1cncc1C#N)c1ccccc1F (stereo not shown) [I-287] | 2.51^[a] |
| CC(C)C(O)(Cn1cncc1C#N)c1ccc(Cl)cc1 (stereo not shown) [I-288] | 2.31^[a] |
| CCCC(O)(Cn1cncc1C#N)c1ccc(Cl)cc1 (stereo not shown) [I-289] | 2.39^[a] |
| CC(O)(Cn1cncc1F)c1ccc(Oc2ccc(C(F)(F)F)nc2)nc1C(F)(F)F (stereo not shown) [I-290] | 2.06^[a] |
| CC(=O)c1cncn1CC(C)(O)c1ccc(Oc2ccc(C(F)(F)F)nc2)nc1C(F)(F)F (stereo not shown) [I-291] | 2.27^[a] |
| CCCC(O)(Cn1cncc1C#N)c1ccc(Cl)cc1Cl (stereo not shown) [I-292] | 3.14^[a] |
| Cc1ccc(C#CC(O)(Cn2cncc2C#N)C2(Cl)CC2)cc1 (stereo not shown) [I-293] | 2.82^[a] |
| CC(O)(Cn1cncc1C#N)c1ccc(Oc2ccc(C(F)(F)F)nc2)nc1C(F)(F)F (stereo not shown) [I-294] | 2.76^[a] |
| CC(O)(Cn1cncc1F)c1ccc(Oc2ccc(C(F)F)cc2)nc1C(F)(F)F (stereo not shown) [I-295] | 2.15^[a] |
| COC(C)(Cn1cncc1C#N)c1ccc(Oc2ccc(Br)cc2)cc1C(F)(F)F (stereo not shown) [I-296] | 4.51^[a] |
| CC(O)(Cn1cncc1F)c1ccc(Oc2ccc(S(F)(F)(F)(F)F)cc2)nc1C(F)(F)F (stereo not shown) [I-297] | 2.62^[a] |
| Cc1ccc(C)c(C#CC(O)(Cn2cncc2C#N)C2(Cl)CC2)c1 (stereo not shown) [I-298] | 3.09^[a] |
| CC(=O)c1cncn1CC(C)(O)c1ccc(Oc2ccc(C(C)C)cc2)nc1C(F)(F)F (stereo not shown) [I-299] | 3.33^[a] |
| CC(C)C(O)(Cn1cncc1C#N)c1ccc(Cl)cc1Cl (stereo not shown) [I-300] | 2.92^[a] |
| CCC(O)(Cn1cncc1C#N)c1ccc(Cl)cc1Cl (stereo not shown) [I-301] | 2.66^[a] |
| CCCCCC(O)(Cn1cncc1C#N)c1ccc(Cl)cc1Cl (stereo not shown) [I-302] | 3.83^[a] |
| CC(C)CC(O)(Cn1cncc1C#N)c1ccc(Cl)cc1Cl (stereo not shown) [I-303] | 3.39^[a] |
| N#Cc1cncn1CC(O)(c1ccc(Cl)cc1Cl)C1CC1 (stereo not shown) [I-304] | 2.77^[a] |
| N#Cc1cncn1CC(O)(c1ccc(Cl)cc1)C1CC1 (stereo not shown) [I-305] | 2.27^[a] |
| C[Si](C)(C)CC(O)(Cn1cncc1C#N)c1ccccc1Cl (stereo not shown) [I-306] | 3.39^[a] |
| C[Si](C)(C)CC(O)(Cn1cncc1C#N)c1ccccc1Br (stereo not shown) [I-307] | 3.50^[a] |
| CC(C)(C)CC(O)(Cn1cncc1C#N)c1ccccc1Br (stereo not shown) [I-308] | 3.27^[a] |
